pIC50: −log10 of the molar value.

The target in experiment [1] is PIK3CD (Human) (UniProt O00329). The experiment can be described thus: Cell-Based Assay. The conditions noted are these: raji.
In experiment [2] the target is PIK3CB (Human) (UniProt P42338). The experiment can be described thus: Enzyme Assay.
The target in experiment [3] is PIK3CG (human) (UniProt P48736). The experiment can be described thus: Enzyme Assay.
Sequence of PIK3CG (human) (P48736 whole entry, looked up): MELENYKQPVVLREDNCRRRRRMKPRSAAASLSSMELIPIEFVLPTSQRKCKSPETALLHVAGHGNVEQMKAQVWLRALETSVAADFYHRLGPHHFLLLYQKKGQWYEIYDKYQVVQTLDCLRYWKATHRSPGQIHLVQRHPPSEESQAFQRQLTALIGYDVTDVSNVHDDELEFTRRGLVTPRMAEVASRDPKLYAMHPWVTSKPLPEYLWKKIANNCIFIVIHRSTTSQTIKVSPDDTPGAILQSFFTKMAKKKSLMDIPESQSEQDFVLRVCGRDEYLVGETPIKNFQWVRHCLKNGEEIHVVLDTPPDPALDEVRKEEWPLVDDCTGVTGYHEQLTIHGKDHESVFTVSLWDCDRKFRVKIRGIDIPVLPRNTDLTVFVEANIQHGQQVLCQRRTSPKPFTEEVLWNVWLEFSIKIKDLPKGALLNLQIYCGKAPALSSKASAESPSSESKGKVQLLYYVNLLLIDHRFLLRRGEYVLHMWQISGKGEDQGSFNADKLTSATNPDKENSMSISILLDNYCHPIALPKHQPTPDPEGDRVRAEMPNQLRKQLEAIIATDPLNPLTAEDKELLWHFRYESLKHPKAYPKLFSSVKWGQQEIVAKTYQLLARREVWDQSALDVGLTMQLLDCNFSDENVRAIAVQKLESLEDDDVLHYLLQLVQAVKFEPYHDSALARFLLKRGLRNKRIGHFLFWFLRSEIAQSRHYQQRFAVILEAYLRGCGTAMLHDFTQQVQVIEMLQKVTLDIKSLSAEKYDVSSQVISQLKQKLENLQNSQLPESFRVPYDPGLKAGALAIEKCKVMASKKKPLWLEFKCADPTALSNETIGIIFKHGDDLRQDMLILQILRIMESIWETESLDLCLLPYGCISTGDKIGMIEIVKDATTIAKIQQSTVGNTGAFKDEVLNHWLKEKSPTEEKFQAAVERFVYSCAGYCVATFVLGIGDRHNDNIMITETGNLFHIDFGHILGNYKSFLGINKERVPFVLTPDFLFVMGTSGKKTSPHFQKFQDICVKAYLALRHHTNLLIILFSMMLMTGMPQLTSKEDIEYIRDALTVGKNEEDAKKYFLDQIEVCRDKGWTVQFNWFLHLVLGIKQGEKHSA

Sequence of PIK3CD (Human) (O00329 whole entry, looked up): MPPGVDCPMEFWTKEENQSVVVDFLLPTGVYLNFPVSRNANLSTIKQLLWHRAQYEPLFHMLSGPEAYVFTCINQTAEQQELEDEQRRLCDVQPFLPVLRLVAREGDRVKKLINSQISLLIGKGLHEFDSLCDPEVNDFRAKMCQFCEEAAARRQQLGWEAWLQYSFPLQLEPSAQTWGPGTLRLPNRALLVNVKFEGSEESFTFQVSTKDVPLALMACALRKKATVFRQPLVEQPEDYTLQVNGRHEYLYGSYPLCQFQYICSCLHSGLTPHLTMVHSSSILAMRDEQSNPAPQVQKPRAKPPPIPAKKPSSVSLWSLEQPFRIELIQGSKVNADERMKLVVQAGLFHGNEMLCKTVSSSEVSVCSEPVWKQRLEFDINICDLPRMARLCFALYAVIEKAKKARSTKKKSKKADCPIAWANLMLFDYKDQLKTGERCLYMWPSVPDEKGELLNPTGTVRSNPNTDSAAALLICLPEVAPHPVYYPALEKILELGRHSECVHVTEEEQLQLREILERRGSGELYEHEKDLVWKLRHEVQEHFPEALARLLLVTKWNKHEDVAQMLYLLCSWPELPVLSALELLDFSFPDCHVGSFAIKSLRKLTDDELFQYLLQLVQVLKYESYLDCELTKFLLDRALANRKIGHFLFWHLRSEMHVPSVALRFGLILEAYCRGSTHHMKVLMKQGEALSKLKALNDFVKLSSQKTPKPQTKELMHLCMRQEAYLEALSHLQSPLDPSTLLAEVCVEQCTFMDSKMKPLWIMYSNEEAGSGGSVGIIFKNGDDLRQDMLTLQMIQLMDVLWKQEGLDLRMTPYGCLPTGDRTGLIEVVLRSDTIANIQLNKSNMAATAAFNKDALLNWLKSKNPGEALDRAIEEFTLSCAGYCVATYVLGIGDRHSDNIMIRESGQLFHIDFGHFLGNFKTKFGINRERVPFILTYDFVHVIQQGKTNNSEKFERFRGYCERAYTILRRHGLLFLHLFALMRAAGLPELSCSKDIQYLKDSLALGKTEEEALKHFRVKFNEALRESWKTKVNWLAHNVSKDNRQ
Sequence of PIK3CB (Human) (P42338 whole entry, looked up): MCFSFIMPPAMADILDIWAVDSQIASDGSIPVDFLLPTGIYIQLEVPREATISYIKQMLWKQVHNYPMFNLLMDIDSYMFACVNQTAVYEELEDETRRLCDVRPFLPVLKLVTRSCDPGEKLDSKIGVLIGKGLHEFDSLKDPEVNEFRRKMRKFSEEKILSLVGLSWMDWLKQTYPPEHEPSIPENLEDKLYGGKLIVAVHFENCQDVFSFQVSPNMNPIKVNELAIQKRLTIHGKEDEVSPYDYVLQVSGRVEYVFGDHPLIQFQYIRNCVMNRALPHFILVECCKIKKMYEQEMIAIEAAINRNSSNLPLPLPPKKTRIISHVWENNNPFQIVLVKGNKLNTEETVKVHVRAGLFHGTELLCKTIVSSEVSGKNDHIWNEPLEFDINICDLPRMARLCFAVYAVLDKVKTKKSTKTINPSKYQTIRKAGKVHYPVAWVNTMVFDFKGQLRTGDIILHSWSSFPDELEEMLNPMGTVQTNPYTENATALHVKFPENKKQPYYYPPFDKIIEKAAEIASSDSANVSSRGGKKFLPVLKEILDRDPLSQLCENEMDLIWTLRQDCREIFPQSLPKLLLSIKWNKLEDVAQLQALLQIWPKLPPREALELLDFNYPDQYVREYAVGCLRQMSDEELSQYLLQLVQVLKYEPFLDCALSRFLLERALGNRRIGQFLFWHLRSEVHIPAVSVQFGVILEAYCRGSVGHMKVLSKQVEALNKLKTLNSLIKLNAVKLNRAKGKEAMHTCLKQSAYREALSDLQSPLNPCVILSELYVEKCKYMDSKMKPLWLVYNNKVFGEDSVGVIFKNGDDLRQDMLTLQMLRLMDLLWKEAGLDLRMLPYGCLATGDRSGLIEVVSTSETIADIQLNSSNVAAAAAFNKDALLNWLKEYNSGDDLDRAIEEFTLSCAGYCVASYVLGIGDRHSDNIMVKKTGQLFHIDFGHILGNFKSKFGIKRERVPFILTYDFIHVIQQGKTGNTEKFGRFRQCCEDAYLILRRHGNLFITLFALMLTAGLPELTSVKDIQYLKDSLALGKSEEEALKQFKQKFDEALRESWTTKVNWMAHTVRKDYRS

For `COc1cc(-c2cccc3cc([C@H](C)NC(=O)c4c(N)nn5cccnc45)n(-c4cccc(F)c4)c(=O)c23)ccn1`, the pIC50 in experiment [1] is 6.00 to 7.00; in experiment [2], at most 5.00; in experiment [3], 6.00 to 7.00.

As to `CC#Cc1cccc2cc([C@H](C)NC(=O)c3c(N)nn4cccnc34)n(-c3ccccc3)c(=O)c12`, the pIC50 in experiment [1] and in experiment [3] was above 7.00 throughout.

Consider `COc1cc(-c2cccc3nc([C@H](C)NC(=O)c4c(N)nn5cccnc45)n(C4CC4)c(=O)c23)ccn1`, for which the pIC50 in experiment [1] was 6.00 to 7.00.

As for `COc1cc(-c2cccc3cc([C@H](C)NC(=O)c4c(N)nn5ccc(C)nc45)n(-c4ccccc4)c(=O)c23)ccn1`, the values for the pIC50 in experiment [1], in experiment [2] and in experiment [3] were above 7.00, at most 5.00 and 6.00 to 7.00, respectively.

On to `CC(C)n1c([C@H](C)NC(=O)c2c(N)nn3cccnc23)cc2cccc(Cl)c2c1=O`, for which the pIC50 in experiment [1] is above 7.00; in experiment [2], 6.00 to 7.00; in experiment [3], 6.00 to 7.00.

For `C[C@H](NC(=O)c1c(N)nn2cccnc12)c1cc2cccc(C#CCNC(=O)[C@H]3CCC(=O)O3)c2c(=O)n1-c1ccccc1`, the pIC50 in experiment [1] and in experiment [3] was above 7.00 throughout.

`COc1cc(-c2cccc3cc([C@H](C)NC(=O)c4c(N)nn5cccnc45)n(C)c(=O)c23)ccn1`: the pIC50 was above 7.00 in experiment [1] and at most 5.00 in experiment [2].

Consider `C[C@H](NC(=O)c1c(N)nn2cccnc12)c1cc2cccc(-c3ccccc3)c2c(=O)n1-c1ccccc1`, for which the pIC50 was 6.00 to 7.00 in experiment [1], at most 5.00 in experiment [2] and 6.00 to 7.00 in experiment [3].

As to `C[C@H](NC(=O)c1c(N)nn2cccnc12)c1cc2cccc(-c3ccncc3)c2c(=O)n1-c1ccccc1`, the pIC50 in experiment [1] was above 7.00; in experiment [2], at most 5.00; in experiment [3], 6.00 to 7.00.

In the case of `C=CC(=O)NCCC#Cc1cccc2cc([C@H](C)NC(=O)c3c(N)nn4cccnc34)n(-c3ccccc3)c(=O)c12`, the figures for the pIC50 in experiment [1] and in experiment [3] were above 7.00 and 6.00 to 7.00, respectively.

Consider `C[C@H](NC(=O)c1nc(-c2cccc(S(N)(=O)=O)c2)cnc1N)c1cc2cccc(Cl)c2c(=O)n1-c1ccccc1`, for which the pIC50 in experiment [1], in experiment [2] and in experiment [3] was 6.00 to 7.00 in each case.

Turning to `C[C@H](NC(=O)c1nc(-c2cn[nH]c2)cnc1N)c1cc2cccc(Cl)c2c(=O)n1-c1ccccc1`, the pIC50 was above 7.00 in experiment [1] and 6.00 to 7.00 in experiment [3].

As for `C[C@H](NC(=O)c1nc(-c2cccc(NS(=O)(=O)C3CC3)c2)cnc1N)c1cc2cccc(Cl)c2c(=O)n1-c1ccccc1`, the pIC50 was above 7.00 in experiment [1], 6.00 to 7.00 in experiment [2] and above 7.00 in experiment [3].

As for `C[C@H](NC(=O)c1nc(-c2cccc(S(C)(=O)=O)c2)cnc1N)c1cc2cccc(Cl)c2c(=O)n1-c1ccccc1`, the pIC50 in experiment [1] and in experiment [3] was 6.00 to 7.00 in each case.

For the molecule `C[C@H](NC(=O)c1cnn2cccnc12)c1cc2cccc(Cl)c2c(=O)n1-c1ccc(F)cc1`, the pIC50 in experiment [1] and in experiment [3] was 6.00 to 7.00 in each case.

In the case of `C[C@H](NC(=O)c1cncc2cccnc12)c1cc2cccc(Cl)c2c(=O)n1-c1ccc(F)cc1`, the pIC50 in experiment [1] was above 7.00.

For `CC(=O)NCC#Cc1cccc2cc([C@H](C)NC(=O)c3c(N)nn4cccnc34)n(-c3ccccc3)c(=O)c12`, the pIC50 in experiment [1] and in experiment [3] was above 7.00 in each case.

`Cc1cccc2cc([C@H](C)NC(=O)c3c(N)nn4cccnc34)n(-c3ccccc3)c(=O)c12`: the pIC50 was above 7.00 in experiment [1] and 6.00 to 7.00 in experiment [3].

Consider `COc1ncc(-c2cccc3cc([C@H](C)NC(=O)c4c(N)nn5cccnc45)n(-c4ccccc4)c(=O)c23)cn1`, for which the results for the pIC50 in experiment [1] and in experiment [3] were above 7.00 and 6.00 to 7.00, respectively.

Consider `CC(=O)Nc1ccc(-c2cccc3cc([C@H](C)NC(=O)c4c(N)nn5cccnc45)n(-c4ccccc4)c(=O)c23)cc1`, for which the results for the pIC50 in experiment [1], in experiment [2] and in experiment [3] were above 7.00, at most 5.00 and 6.00 to 7.00, respectively.

`C[C@H](NC(=O)c1nc(-c2cccc(NS(C)(=O)=O)c2)cnc1N)c1cc2cccc(Cl)c2c(=O)n1C1CC1`: the pIC50 was above 7.00 in experiment [1], 6.00 to 7.00 in experiment [2] and above 7.00 in experiment [3].

With `Cc1cc(C)n2nc(N)c(C(=O)N[C@@H](C)c3cc4cccc(Cl)c4c(=O)n3-c3ccccc3)c2n1`, the pIC50 in experiment [1] was above 7.00; in experiment [2], 6.00 to 7.00; in experiment [3], 6.00 to 7.00.

In the case of `C[C@H](NC(=O)c1c(N)nn2cccnc12)c1c(Br)c2cccc(F)c2c(=O)n1-c1ccccc1`, the pIC50 in experiment [3] was 6.00 to 7.00.

On to `C[C@H](NC(=O)c1cncc2cccnc12)c1cc2cccc(C(F)(F)F)c2c(=O)n1-c1ccccc1`, for which the pIC50 in experiment [1] is above 7.00.

Consider `C[C@H](NC(=O)c1nc(-c2cccc(S(=O)(=O)NC(C)(C)C)c2)cnc1N)c1cc2cccc(Cl)c2c(=O)n1-c1ccccc1`, for which the results for the pIC50 in experiment [1] and in experiment [3] were above 7.00 and 6.00 to 7.00, respectively.

`COc1cc(-c2cccc3cc([C@H](C)NC(=O)c4c(N)nn5cccnc45)n(-c4ccccc4)c(=O)c23)ccn1`: the pIC50 in experiment [1] is above 7.00; in experiment [3] it was 6.00 to 7.00.

`C[C@H](NC(=O)c1c(N)nn2cccnc12)c1cc2cccc(-c3ccn[nH]3)c2c(=O)n1-c1ccccc1`: the pIC50 was 6.00 to 7.00 in experiment [1], at most 5.00 in experiment [2] and 6.00 to 7.00 in experiment [3].

In the case of `C[C@H](NC(=O)c1cnn2cccnc12)c1cc2cccc(C#CCNC(=O)[C@@H]3CCC(=O)N3)c2c(=O)n1-c1ccccc1`, the pIC50 in experiment [1] and in experiment [3] was 6.00 to 7.00 in each case.

In the case of `C[C@H](NC(=O)c1c(N)nn2cccnc12)c1cc2cccc(C#CCNC(=O)C3CCCCC3)c2c(=O)n1-c1ccccc1`, the pIC50 in experiment [1] was above 7.00; in experiment [3], 6.00 to 7.00.

For `COc1ccc(-c2cnc(N)c(C(=O)N[C@@H](C)c3cc4cccc(Cl)c4c(=O)n3-c3ccccc3)n2)cc1OC`, the pIC50 in experiment [1] and in experiment [3] was 6.00 to 7.00 throughout.

Regarding `C[C@H](NC(=O)c1c(N)nn2cccnc12)c1cc2cccc(C#CCCN)c2c(=O)n1-c1ccccc1`, the pIC50 in experiment [1] and in experiment [3] was 6.00 to 7.00 throughout.

For `CC(C)Oc1ccc(-c2cnc(N)c(C(=O)N[C@@H](C)c3cc4cccc(Cl)c4c(=O)n3-c3ccccc3)n2)cc1F`, the values for the pIC50 in experiment [2] and in experiment [3] were at most 5.00 and 6.00 to 7.00, respectively.

For `C[C@H](NC(=O)c1c(N)nn2cccnc12)c1cc2cccc(-c3cccs3)c2c(=O)n1-c1ccccc1`, the pIC50 in experiment [1] and in experiment [3] was 6.00 to 7.00 each time.

On to `C[C@H](NC(=O)c1cnc2cccnn12)c1cc2cccc(Cl)c2c(=O)n1-c1ccc(F)cc1`, for which, in experiment [1], the negative logarithm of the IC50 (pIC50) was above 7.00.

The molecule `C[C@H](NC(=O)c1c(N)nn2cccnc12)c1cc2cccc(Cl)c2c(=O)n1C1CCCCC1` gave a pIC50 in experiment [1] above 7.00.

Consider `CC(=O)Nc1ncc(-c2cccc3cc([C@H](C)NC(=O)c4c(N)nn5cccnc45)n(-c4ccccc4)c(=O)c23)s1`, for which the pIC50 was at most 5.00 in experiment [2] and 6.00 to 7.00 in experiment [3].

For the molecule `C[C@H](NC(=O)c1c(N)nn2cccnc12)c1cc2cccc(Cl)c2c(=O)n1-c1ccc(F)c(F)c1`, the pIC50 is 6.00 to 7.00 in experiment [1] and above 7.00 in experiment [3].

With `C[C@H](NC(=O)c1c(N)nn2cccnc12)c1cc2cccc(C#CCNS(C)(=O)=O)c2c(=O)n1-c1ccccc1`, the pIC50 in experiment [1] and in experiment [3] was 6.00 to 7.00 in each case.

Consider `C[C@H](NC(=O)c1c(N)nn2cccnc12)c1cc2cccc(C#CCN)c2c(=O)n1-c1ccccc1`, for which the pIC50 in experiment [1] and in experiment [3] was 6.00 to 7.00 each time.

The record behind these values is the Kinase Knowledgebase extract (Sharma et al. 2016).
